In test [1] the target is T1, hAT1R (Homo sapiens, UniProt P30556).
T1 sequence (P30556 1-359): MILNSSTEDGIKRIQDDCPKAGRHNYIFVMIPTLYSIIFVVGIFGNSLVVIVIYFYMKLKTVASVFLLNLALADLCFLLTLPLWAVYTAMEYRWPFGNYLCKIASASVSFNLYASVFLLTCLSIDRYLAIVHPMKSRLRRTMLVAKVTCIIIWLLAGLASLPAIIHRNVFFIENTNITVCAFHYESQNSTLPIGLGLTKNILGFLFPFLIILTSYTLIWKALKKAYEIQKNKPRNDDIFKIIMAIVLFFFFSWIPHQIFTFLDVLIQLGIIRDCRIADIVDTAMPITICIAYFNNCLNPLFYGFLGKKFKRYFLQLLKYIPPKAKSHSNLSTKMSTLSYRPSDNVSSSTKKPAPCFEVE
In words: cell-based. The conditions noted are these: section of the 42nd table ending at r951, example numbering restarts after the DiscoveRx section; read-out: β-arrestin2 EC50.

A further test deals with T2, AGTR1 (Homo sapiens, UniProt P30556).
T2 construct: host or cells: Pathunter CHO-K1 AGTR1 β-arrestin cell line (CHO-K1)
T2 sequence (P30556 1-359): T1 sequence (P30556 1-359)
As to the kind of experiment: DiscoveRx β-arrestin2 recruitment assay (enzyme complementation, Pathunter CHO-K1 AGTR1 β-arrestin cell line). Format: cell-based. The conditions noted are these: DiscoveRx β-arrestin2 recruitment; for DiscoveRx β-arrestin2 Ymax (%): maximal response. In short, it runs like this: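 Chemiluminescent enzyme-complementation read-out of β-arrestin2 recruitment to AGTR1 in engineered CHO-K1 cells after 90 min compound exposure at 37° C. Values are 4-parameter logistic EC50s in agonist mode, IC50s in antagonist mode, with efficacy relative to the maximal All response.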

The target of test [2] is T1, hAT1R. In words: BRET Gq biosensor assay, agonist response, HEK293 cells. Format: cell-based. The conditions noted are these: section of the 42nd table directly before the BRET P63 section. In short, it runs like this: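 Agonist EC50 derived from a 4-parameter fit of BRET2 ratio (GFP 515 nm/Rluc 410 nm), scaled between unstimulated control and maximal AngII response. Readings taken 5 min after compound addition at room temperature, with 2 μM coelenterazine, in HEK293 cells expressing hAT1R, Gαq-Rluc, Gβ1 and GFP-Gγ1 (transfected two days earlier).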

The target in test [3] is T1, hAT1R. As to the kind of experiment: cell-based. The conditions noted are these: agonist mode; for EC50: read-out: BRET P63 EC50.

Bounds are passed on as bounds.

`CCc1nc2c(C)cc(C)nc2n1Cc1ccc(-c2cc(-c3ccccc3)ccc2-c2nn[nH]n2)cc1F` [Example 264, 2-ethyl-3-((3-fluoro-6′-(2H-tetrazol-5-yl)-[1,1′:3′,1″-terphenyl]-4-yl)methyl)-5,7-dimethyl-3H-imidazo[4,5-b]pyridine]: the EC50 amounted to 12.9 nM at hAT1R [1], 19.2 nM at AGTR1, 42.8 nM at hAT1R [2] and 7.4 nM at hAT1R [3]. At AGTR1, the “DiscoveRx β-arrestin2 Ymax (%)” value is 52.9%. The “BRET P63 Ymax” value at hAT1R [3] came to 15.7%.
In the case of `CCOc1nc2cccc(C(=O)O)c2n1Cc1ccc(-c2cc(-c3cc(C)ccn3)ccc2-c2nn[nH]n2)cc1` [Example 309, 2-ethoxy-1-((5′-(4-methylpyridin-2-yl)-2′-(2H-tetrazol-5-yl)-[1,1′-biphenyl]-4-yl)methyl)-1H-benzo[d]imidazole-7-carboxylic acid], the EC50 on hAT1R [1] came to 6.5 nM; on AGTR1, 4.1 nM; on hAT1R [2] it was 7.9 nM; at hAT1R [3], 3.8 nM. Further, the “DiscoveRx β-arrestin2 Ymax (%)” value on AGTR1 is on record as 80.4%. Besides, on hAT1R [3], the “BRET P63 Ymax” value is listed as 28.6%.
With `CCOc1nc2cccc(C(=O)O)c2n1Cc1ccc(-c2cc(N3CCC[C@H](C)C3)ccc2-c2nn[nH]n2)cc1` [Example 324], the EC50 at hAT1R [1] was 63.2 nM; on AGTR1, 17.4 nM; at hAT1R [2], 42.3 nM; on hAT1R [3], more than 10000 nM. In addition, the “DiscoveRx β-arrestin2 Ymax (%)” value at AGTR1 is reported as 55.2%.
In the case of `CCOc1nc2cccc(C(=O)O)c2n1Cc1ccc(-c2cc(-c3cc(OC)ccn3)ccc2-c2nn[nH]n2)cc1` [Example 310, 2-ethoxy-1-((5′-(4-methoxypyridin-2-yl)-2′-(2H-tetrazol-5-yl)-[1,1′-biphenyl]-4-yl)methyl)-1H-benzo[d]imidazole-7-carboxylic acid], the EC50 is 10.9 nM on hAT1R [1], 14.9 nM at AGTR1, 35.3 nM on hAT1R [2] and 7.2 nM at hAT1R [3]. In addition, the “DiscoveRx β-arrestin2 Ymax (%)” value at AGTR1 is listed as 51.4%. For the same compound, the “BRET P63 Ymax” value at hAT1R [3] came out at 29.1%.
As for `CCOc1nc2cccc(C(=O)O)c2n1Cc1ccc(-c2cc(Oc3cccc(F)c3)ccc2-c2nn[nH]n2)cc1` [Example 331], the EC50 at hAT1R [1] was 8.4 nM; on AGTR1, 13.2 nM; at hAT1R [2], 26.4 nM; on hAT1R [3], more than 10000 nM. For the same compound, at AGTR1, the “DiscoveRx β-arrestin2 Ymax (%)” value stood at 44.5%.
For the compound `CCc1nc2c(C)cc(C)nc2n1Cc1ccc(-c2cc(-c3cccc(C)c3)ccc2-c2nn[nH]n2)cc1F` [Example 266], the EC50 amounted to 5.7 nM on hAT1R [1], 64.3 nM on AGTR1, 26.1 nM on hAT1R [2] and 5.7 nM on hAT1R [3]. Besides, the “DiscoveRx β-arrestin2 Ymax (%)” value at AGTR1 was 75.8%. On hAT1R [3], the “BRET P63 Ymax” value was 19.1%.
Consider `CCOc1nc2cccc(C(=O)O)c2n1Cc1ccc(-c2cc(N3CCC[C@@H](C)C3)ccc2-c2nn[nH]n2)cc1` [Example 323], for which the EC50 at hAT1R [1] is 24.4 nM; on AGTR1, 22.2 nM; on hAT1R [2] it was more than 100000 nM; at hAT1R [3] it was more than 10000 nM. The “DiscoveRx β-arrestin2 Ymax (%)” value at AGTR1 turned out to be 43.2%.
The like results for `CCOc1nc2cccc(C(=O)O)c2n1Cc1ccc(-c2cc(-n3ccc(C(F)(F)F)n3)ccc2-c2nn[nH]n2)cc1` [Example 338] were, in that order, 16.3 nM, 17.8 nM, 30.8 nM, more than 10000 nM and 68.9%.
The like results for `CCOc1nc2cccc(C(=O)O)c2n1Cc1ccc(-c2cc(-c3cnc4ccccc4c3)ccc2-c2nn[nH]n2)cc1` [Example 326, 2-ethoxy-1-((5′-(quinolin-3-yl)-2′-(2H-tetrazol-5-yl)-[1,1′-biphenyl]-4-yl)methyl)-1H-benzo[d]imidazole-7-carboxylic acid] were, in that order, 24.7 nM, 9.5 nM, 16.2 nM, more than 100000 nM and 45.9%.
Regarding `CCOc1nc2cccc(C(=O)O)c2n1Cc1ccc(-c2cc(Oc3ccccc3F)ccc2-c2nn[nH]n2)cc1` [Example 334], the EC50 was determined as 5.9 nM on hAT1R [1], 10.8 nM at AGTR1, 41.3 nM on hAT1R [2] and 15.7 nM on hAT1R [3]. Moreover, the “DiscoveRx β-arrestin2 Ymax (%)” value at AGTR1 worked out at 73.5%. Further, on hAT1R [3], the “BRET P63 Ymax” value was determined as 13.9%.
On to `CCOc1nc2cccc(C(=O)O)c2n1Cc1ccc(-c2cc(-n3cnc4ccccc43)ccc2-c2nn[nH]n2)cc1` [Example 339], for which the EC50 on hAT1R [1] was 12.8 nM; on AGTR1 it was 10.6 nM; at hAT1R [2], 52.1 nM; at hAT1R [3] it was more than 10000 nM. In addition, on AGTR1, the “DiscoveRx β-arrestin2 Ymax (%)” value is on record as 58.0%.
Turning to `CCOc1nc2cccc(C(=O)O)c2n1Cc1ccc(-c2cc(-c3cc(C)ccn3)ccc2-c2noc(=O)[nH]2)cc1` [Example 299, 2-ethoxy-1-((5′-(4-methylpyridin-2-yl)-2′-(5-oxo-4,5-dihydro-1,2,4-oxadiazol-3-yl)-[1,1′-biphenyl]-4-yl)methyl)-1H-benzo[d]imidazole-7-carboxylic acid], the EC50 is 4.7 nM at hAT1R [1], 7.7 nM on AGTR1, 21.3 nM at hAT1R [2] and 4.9 nM on hAT1R [3]. The “DiscoveRx β-arrestin2 Ymax (%)” value at AGTR1 was found to be 83.0%. The “BRET P63 Ymax” value at hAT1R [3] worked out at 31.7%.
In the case of `CCOc1nc2cccc(C(=O)O)c2n1Cc1ccc(-c2cc(Oc3cnccc3C)ccc2-c2nn[nH]n2)cc1` [Example 337], the EC50 at hAT1R [1] is 631 nM; on AGTR1 it was 40.6 nM; on hAT1R [2], 55.8 nM; at hAT1R [3], more than 10000 nM. The “DiscoveRx β-arrestin2 Ymax (%)” value at AGTR1 was 85.6%.
As to `CCCCc1nc(Cl)c(C(=O)O)n1Cc1ccc(-c2cc(Oc3ccccn3)ccc2-c2nn[nH]n2)cc1` [Example 427, 2-Butyl-4-chloro-1-((5′-(pyridin-2-yloxy)-2′-(2H-tetrazol-5-yl)-[1,1′-biphenyl]-4-yl)methyl)-1H-imidazole-5-carboxylic acid], the EC50 on hAT1R [1] is more than 10000 nM; at AGTR1, 89.9 nM; on hAT1R [2], 575 nM; on hAT1R [3], more than 10000 nM. Besides, at AGTR1, the “DiscoveRx β-arrestin2 Ymax (%)” value is reported as 19.6%.
For `CCOc1nc2cccc(C(=O)O)c2n1Cc1ccc(-c2cc(Oc3ccc(F)cc3)ccc2-c2nn[nH]n2)cc1` [Example 336], the EC50 at hAT1R [1] was 12.4 nM; on AGTR1, 16.4 nM; at hAT1R [2], 47.2 nM; on hAT1R [3], more than 10000 nM. For the same compound, the “DiscoveRx β-arrestin2 Ymax (%)” value on AGTR1 stood at 61.4%.
Taken in the same sequence, the figures for `CCCc1nc(CC)c(C(N)=O)n1Cc1ccc(-c2cc(-c3ccccc3)ccc2-c2nn[nH]n2)c(C)c1` [Example 426] were 49.6 nM, 34.2 nM, 86 nM, more than 10000 nM and 52.5%.
As to `CCCCc1nc(Cl)c(C(=O)O)n1Cc1ccc(-c2cc(N3CCC[C@@H](C)C3)ccc2-c2nn[nH]n2)cc1` [Example 419, (R)-2-butyl-4-chloro-1-((5′-(3-methylpiperidin-1-yl)-2′-(2H-tetrazol-5-yl)-[1,1′-biphenyl]-4-yl)methyl)-1H-imidazole-5-carboxylic acid], the EC50 at hAT1R [1] is 85.2 nM; on AGTR1, 121 nM; at hAT1R [2], 228 nM; at hAT1R [3], more than 10000 nM. Moreover, on AGTR1, the “DiscoveRx β-arrestin2 Ymax (%)” value worked out at 33.9%.

Values taken from patent US12037324B2, “Biarylmethyl heterocycles” (Université de Montréal, priority 2016, dated 2024).
